“Also recorded” adds a separate entry of the source. Read-outs that look alike come from different tables or passages of the source. Marks after values point to notes of the source that are not given here.
What was measured:
[1] = tested on: iron-induced lipid peroxidation (MDA formation) in rat brain cortex homogenates; assay: Prevention of iron-induced lipid peroxidation (MDA formation, TBA method) in rat brain cortex homogenates; format: biochemical; conditions: 10^−3M chelator; for reduction of iron-induced MDA formation: 10^−4M ferric chloride
Description: The ability of the compounds of the invention to prevent lipid peroxidation in brain tissue was first screened in rat brain homogenates in vitro by a method involving the detection of free radicals performed by […] and measurement of the MDA formation, as described by D. Ben-Shachar et al. (1991) J. Neurochem. 57: 1609-14. In this method, brain cortex homogenates are prepared in sucrose and incubated alone to determine basal lipid peroxidation, or incubated after the addition of Fe2(SO4)3 or FeCl3 for Fe-induction of maximum free-radical formation, and in the presence of the iron chelators to be tested. After addition of TBA, lipid peroxidation is assayed by measurement of MDA formation.
Brain cortex homogenates (10% wt/vol) from male Wistar rats were prepared in 0.3M sucrose and incubated in air as described (Rehncrona et al., (1980) J. Neurochem. 34: 1630-38). Aliquots (0.1 ml) of homogenate were incubated alone at 30° C. for 90 min to determine basal lipid peroxidation, or incubated after the addition of 10^−4 Fe2(SO4), or FeCl3 and in the presence of 10^−3M iron chelator of formula I or II. For the assay, to 0.3 ml of the homogenate there were added 0.2 ml of 8% SDS, 1.5 ml of 20% acetic acid pH 3.0-3.5, 1.5 ml of 0.8% thiobarbituric acid (TBA) and 0.5 ml of H2O2×2, the mixture was incubated at 95° C. for 60 min, cooled and lipid peroxidation was assayed by measurement of malondialdehyde formation at 532 nm, as described (Dexter et al. (1989) J. Neurobiochem. 52: 381-89). Standard curve: 1,1,3,3-tetraethoxypropane 0.1-25 nmol in 0.3 ml.
In another experiment, the Compounds 3, 7, 9-17 and 26 were examined for their ability to inhibit lipid peroxidation in vitro by measuring their capability to inhibit MDA formation in the presence of 10^−4M FeCl3 in rat brain homogenates. Ferric chloride(10^−4M)-induced lipid peroxidation, as measured by MDA formation in rat cerebral cortex homogenates, was inhibited to a different degree by 10^−3M of the various chelators.

[2] = tested on: 6-OHDA-induced lesion of nigrostriatal dopamine neurons; assay: Prevention of 6-OHDA-induced toxicity in rats (striatal biogenic amines and metabolites by HPLC); format: in vivo, rat
Description: Male Sprague-Dawley rats, weighing 230-270 g, were housed in a controlled-temperature room with a standardized dark-light schedule (12/12 h) for 4 weeks. Rats were anesthetized with a mixture of 15 mg/kg of pentobarbital and 60 mg/kg of chloral hydrate. 6-OHDA (250 μg in 5 μl of 0.9% NaCl containing 0.2% ascorbic acid), the chelator 3 or 15 (200 μg in 5 μl), a combination of both (the chelator 3 or 15 15 min before 6-OHDA), or saline (5 μl) (control) was injected into the right cerebral ventricle using stereotactic techniques. The coordinates with bregma as the reference were D 0.8 mm, L 1.3 mm, and V 3.6 mm according to the atlas of Paxinos and Watson. Pargyline (50 mg/kg i.p.) and desmethylimipramine-HCl (25 mg/kg i.p.) were administered to all the rats 60 min before intracerebroventricular injection. Pargyline inhibits monoamine oxidase and thereby enhances the toxicity of 6-OHDA, and desmethylimipramine provides protection for central noradrenergic neurons from the toxin. All the animals received a daily injection of isotonic glucose (4 ml/day i.p.) until they regained their original body weight. Behavioral tests were performed 4 weeks after operation, commencing between 8 and 10 a.m. The rats were killed after the behavioral studies. Desferal was obtained from Ciba Geigy, and other chemicals were from Sigma (St. Louis, Mo., U.S.A.).
Norepinephrine (NE), DA, and metabolite levels were measured as follows: four weeks postoperatively, rats were killed by decapitation, and the brains were rapidly removed. The striata were dissected on an ice-chilled glass plate and quickly frozen in liquid nitrogen. The endogenous levels of NE, DA, 3,4-dihydroxyphenylacetic acid (DOPAC), and homovanillic acid (HVA) were determined by HPLC with electrochemical detection (Ben-Shachar et al. (1991) Eur. J. Pharmacol. 202:177-83). All data are expressed as mean±SEM values. Statistical analysis was carried out by analysis of variance with multiple comparisons followed by Student's t test.
Striatal dopamine and its metabolites DOPAC and HVA concentrations, which were determined by HPLC, served as a criteria for the extent of the damage caused by 6-OHDA in the presence or absence of the iron chelators. […] Dopamine turnover was normal in rats pretreated with iron chelators (Table 1).
Based on confirmation properties of the two iron chelators 3 and 15, it was considered that Compound 15 has a better chance to cross the blood-brain-barrier (BBB) and the studies were continued with Compound 15. In order to decrease to minimum the possibility of a direct interaction between the chelator and the toxin as a cause for the protection, and to try to find a smaller effective dose of the chelator, 1 μg Compound 15 was injected intraventricularly prior to the injection of 250 μg 6-OHDA.
The main goal at this stage of research was to find out whether Compound 15 given peripherally would be able to prevent 6-OHDA-induced toxicity. In other words the question was whether the chelator will stay stable in the periphery, cross the BBB and […]. Control group received phosphate buffer pH−6.4 0.1M. On the 11th day, the rats of both groups were injected intraventricularly with 250 μg 6-OHDA.

[3] = tested on: 6-OHDA-induced dopaminergic neuron degeneration; conditions: cited from earlier work
[4] = Table 1: 200 μg chelator intraventricular prior to 250 μg 6-OHDA (Comb.), 6-OHDA = 250 μg 6-OHDA alone
[5] = Table 1: 200 μg chelator intraventricular prior to 250 μg 6-OHDA (Comb.), 6-OHDA = 250 μg 6-OHDA alone, mean±SEM
[6] = Table 2: 1 μg chelator 15 intraventricular prior to 250 μg 6-OHDA (Comb.), 6-OHDA = 250 μg 6-OHDA alone
[7] = Table 3: chelator 15 5 mg/Kg/day i.p. for 10 days + 250 μg 6-OHDA intraventricular (Comb.), 6-OHDA = 250 μg 6-OHDA without chelator
[8] = intracerebroventricular 6-OHDA (250 μg)

OCCN1CCN(Cc2ccc(O)c3ncccc23)CC1 [Compound 15, 5-(4-(2-hydroxyethyl)piperazin-1-ylmethyl)-8-hydroxyquinoline]
inhibition of MDA formation (lipid peroxidation), in words ([1]; 10^−4M FeCl3, rat cerebral cortex homogenates): most effective | reduction of iron-induced MDA formation [1]: ~50% | prevention of 6-OHDA-induced lesion, in words ([2]; 1 μg intraventricular prior to 250 μg 6-OHDA): effective in preventing 6-OHDA-induced lesion | prevention of 6-OHDA-induced reduction in striatal dopamine and DOPAC concentrations, in words ([2]; 200 μg chelator intraventricular prior to 250 μg 6-OHDA): efficiently prevented | protection against 6-OHDA toxicity, in words ([2]; 5 mg/Kg i.p. for 10 days before intraventricular 250 μg 6-OHDA): Partial but significant protection; also recorded: partially protected | (DOPAC + HAV)/DA (dopamine turnover) [2, 4]: 0.15 | 5-HIAA in rat striatum [2, 5]: 4.48 ± 0.38 pmol/mg tissue | 5-HT in rat striatum [2, 5]: 4.24 ± 0.43 pmol/mg tissue | DA in rat striatum [2, 5]: 33.8 ± 4.3 pmol/mg tissue | DOPAC in rat striatum [2, 5]: 2.45 ± 0.25 pmol/mg tissue | HVA in rat striatum [2, 5]: 2.67 ± 0.33 pmol/mg tissue | NE in rat striatum [2, 5]: 5.01 ± 0.1 pmol/mg tissue | 5-HIAA in rat striatum [2, 6]: 4.98 ± 0.46 pmol/mg tissue | 5-HT in rat striatum [2, 6]: 4.84 ± 0.45 pmol/mg tissue | (DOPAC + HAV)/DA (dopamine turnover) [2, 6]: 0.08 | DA in rat striatum [2, 6]: 62.9 ± 3.13 pmol/mg tissue | DOPAC in rat striatum [2, 6]: 2.49 ± 0.13 pmol/mg tissue | HVA in rat striatum [2, 6]: 2.77 ± 0.25 pmol/mg tissue | NE in rat striatum [2, 6]: 1.3 ± 0.12 pmol/mg tissue | 5-HIAA in rat striatum [2, 7]: 1.59 ± 0.16 pmol/mg tissue | 5-HT in rat striatum [2, 7]: 2.6 ± 0.31 pmol/mg tissue | (DOPAC + HAV)/DA (dopamine turnover) [2, 7]: 0.15 | DA in rat striatum [2, 7]: 24.4 ± 4.4^ab pmol/mg tissue | DOPAC in rat striatum [2, 7]: 1.4 ± 0.25 pmol/mg tissue | HVA in rat striatum [2, 7]: 2.28 ± 0.75 pmol/mg tissue | NE in rat striatum [2, 7]: 1.21 ± 0.4 pmol/mg tissue

Cl.Cl.Cl.Oc1ccc(CN2CCNCC2)c2cccnc12
melting point: 232 to 234 °C (dec.)

CC(=O)c1cc(CN2CCN(CCO)CC2)ccc1O [Compound 5, 2-acetyl-4-[4-(2-hydroxyethyl)piperazin-1-yl-methyl]phenol]
melting point: 72 to 75 °C

Cl.Cl.Cl.Cl.Oc1ccc(CN2CCN(Cc3ccc(O)c4ncccc34)CC2)c2cccnc12
melting point: 227 to 228 °C

O=C(CCC(CN(CC(=O)OCc1ccccc1)CC(=O)OCc1ccccc1)N(CC(=O)OCc1ccccc1)CC(=O)OCc1ccccc1)NCCN1CCN(C(=O)OCc2ccccc2)CC1 (stereo not shown) [Compound 1, N-[2-(4-carbobenzoxypiperazin-1-yl)ethyl]-4,5-bis[bis(benzyloxycarbonylmethyl)amino]valeramide]
reduction of iron-induced MDA formation [1]: ~50%

CC(=O)N(O)CCCCCNC(=O)CCC(=O)N(O)CCCCCNC(=O)CCC(=O)N(O)CCCCCN [desferrioxamine]
protection against the 6-OHDA-induced reduction in striatal DA content ([3]; 13 ng i.c.v. prior to 6-OHDA (250 μg)): 100% | protection against the 6-OHDA-induced reduction in striatal DA content ([3]; 130 ng i.c.v. prior to 6-OHDA (250 μg)): ~60% | DA release (HVA/DA ratio), in words ([3]; desferrioxamine i.c.v. prior to 6-OHDA): normalization of DA release | dopaminergic-related behavioral responses (spontaneous movements in a novel environment, rearing), in words ([3]; desferrioxamine-pretreated rats, 6-OHDA): almost normal behavioral responses | protection against 6-OHDA-induced lesions of nigrostriatal dopamine neurons, in words ([3]; rats): protected

NCCc1cc(O)c(O)cc1O [Compound 6-OHDA, 6-hydroxydopamine]
decrease in striatal dopamine levels ([2]; 250 μg 6-OHDA intraventricular, rats): 80% | (DOPAC + HAV)/DA (dopamine turnover) [2, 4]: 0.202 | 5-HIAA in rat striatum [2, 5]: 3.76 ± 0.20 pmol/mg tissue | 5-HT in rat striatum [2, 5]: 4.00 ± 0.35 pmol/mg tissue | DA in rat striatum [2, 5]: 19.93 ± 5.0^c pmol/mg tissue | DOPAC in rat striatum [2, 5]: 1.79 ± 0.25^a pmol/mg tissue | HVA in rat striatum [2, 5]: 2.24 ± 0.23 pmol/mg tissue | NE in rat striatum [2, 5]: 5.0 ± 0.1 pmol/mg tissue | 5-HIAA in rat striatum [2, 6]: 6.29 ± 0.65 pmol/mg tissue | 5-HT in rat striatum [2, 6]: 3.22 ± 0.42 pmol/mg tissue | (DOPAC + HAV)/DA (dopamine turnover) [2, 6]: 0.14 | DA in rat striatum [2, 6]: 12.93 ± 3.3^a pmol/mg tissue | DOPAC in rat striatum [2, 6]: 0.76 ± 0.11^a pmol/mg tissue | HVA in rat striatum [2, 6]: 1.10 ± 0.21^a pmol/mg tissue | NE in rat striatum [2, 6]: 1.1 ± 0.1 pmol/mg tissue | 5-HIAA in rat striatum [2, 7]: 1.57 ± 0.07 pmol/mg tissue | 5-HT in rat striatum [2, 7]: 2.60 ± 0.15 pmol/mg tissue | (DOPAC + HAV)/DA (dopamine turnover) [2, 7]: 0.16 | DA in rat striatum [2, 7]: 9.69 ± 2.63^a pmol/mg tissue | DOPAC in rat striatum [2, 7]: 0.51 ± 0.11^A pmol/mg tissue | HVA in rat striatum [2, 7]: 1.05 ± 0.19^A pmol/mg tissue | NE in rat striatum [2, 7]: 1.22 ± 0.04 pmol/mg tissue | increase in DA release as indicated by the HVA/DA ratio [3, 8]: 2.5 fold | reduction in striatal tissue content of DOPAC [3, 8]: 79% | reduction in striatal tissue content of HVA [3, 8]: 70% | reduction in striatal tissue content of dopamine (DA) [3, 8]: 88%

Source: patent US6855711B1, “Pharmaceutical compositions comprising iron chelators for the treatment of neurodegenerative disorders and some novel iron chelators” (Yeda Research and Development Co. Ltd., priority 1999, dated 2005)
